pIC50: −log10 of the molar value. Positions of bridges follow the written chain, without caps; N, C: chain ends. Residues, ends and D or L forms follow the SMILES beside them.
Experiment: Binding affinity against Opioid receptor delta 1 in guinea pig brain homogenate using [3H]- DPDPE as radioligand

| SMILES | pIC50 |
| --- | --- |
| CC[C@H](C)[C@H](NC(=O)[C@H](CCCNC(=N)N)NC(=O)[C@H](CCCNC(=N)N)NC(=O)[C@H](CC(C)C)NC(=O)[C@H](Cc1ccccc1)NC(=O)CNC(=O)CNC(=O)[C@@H](N)Cc1ccc(O)cc1)C(=O)N[C@@H](CCCNC(=N)N)C(=O)N1CCC[C@H]1C(=O)N[C@@H](CCCCN)C(=O)N[C@@H](CC(C)C)C(=O)N[C@@H](CCCCN)C(N)=O | 8.39 |
| C[C@H]1NC(=O)[C@H](CCCNC(=N)N)NC(=O)[C@H](CCCNC(=N)N)NC(=O)[C@@H](NC(=O)[C@H](Cc2ccccc2)NC(=O)CNC(=O)CNC(=O)[C@@H](N)Cc2ccc(O)cc2)CSSC[C@@H](C(N)=O)NC(=O)[C@@H]2CCCN2C(=O)[C@H](CCCNC(=N)N)NC1=O | 7.72 |
| CC(C)C[C@H](NC(=O)[C@H](Cc1ccccc1)NC(=O)CNC(=O)CNC(=O)[C@@H](N)Cc1ccc(O)cc1)C(=O)N[C@@H](CCCNC(=N)N)C(=O)N[C@@H](CCCNC(=N)N)C(=O)N[C@@H]1CSSC[C@H](C(N)=O)NC(=O)[C@H](CC(C)C)NC(=O)[C@H](CCCCN)NC(=O)[C@@H]2CCCN2C(=O)[C@H](CCCNC(=N)N)NC1=O | 7.85 |
| CC(C)C[C@@H]1NC(=O)[C@H](CCCCN)NC(=O)[C@@H]2CCCN2C(=O)[C@H](CCCNC(=N)N)NC(=O)[C@@H](NC(=O)[C@H](CCCNC(=N)N)NC(=O)[C@H](CCCNC(=N)N)NC(=O)[C@H](CC(C)C)NC(=O)[C@H](Cc2ccccc2)NC(=O)CNC(=O)CNC(=O)[C@@H](N)Cc2ccc(O)cc2)CSSC[C@@H](C(N)=O)NC1=O | 8.40 |
| CC[C@H](C)[C@H](NC(=O)[C@H](CCCNC(=N)N)NC(=O)[C@H](CCCNC(=N)N)NC(=O)[C@H](CC(C)C)NC(=O)[C@H](Cc1ccccc1)NC(=O)CNC(=O)CNC(=O)[C@@H](N)Cc1ccc(O)cc1)C(=O)N[C@@H](CCCNC(=N)N)C(=O)N1CCC[C@H]1C(=O)N[C@@H](CCCCN)C(N)=O | 8.15 |
| CC(C)C[C@@H]1NC(=O)[C@H](CCCCN)NC(=O)[C@@H]2CCCN2C(=O)[C@H](CCCNC(=N)N)NC(=O)[C@H](NC(=O)[C@H](CCCNC(=N)N)NC(=O)[C@H](CCCNC(=N)N)NC(=O)[C@H](CC(C)C)NC(=O)[C@H](Cc2ccccc2)NC(=O)CNC(=O)CNC(=O)[C@@H](N)Cc2ccc(O)cc2)CSSC[C@@H](C(N)=O)NC1=O | 6.98 |
| CC[C@H](C)[C@@H]1NC(=O)[C@H](CCCNC(=N)N)NC(=O)[C@H](CCCNC(=N)N)NC(=O)[C@@H](NC(=O)[C@H](Cc2ccccc2)NC(=O)CNC(=O)CNC(=O)[C@@H](N)Cc2ccc(O)cc2)CSSC[C@@H](C(N)=O)NC(=O)[C@@H]2CCCN2C(=O)[C@H](CCCNC(=N)N)NC1=O (H-YGGFCRRIRPC-NH2; disulfide 5-11) | 8.80 |

Reference: BindingDB's records for doi:10.1021/jm00169a007 (University of Arizona, 1990)
